This is an account of results in US12448383B2, “Compounds and methods for treatment of viral infections” (priority 2022, dated 2025).

Read-outs that look alike come from different tables or passages of the source.

One series is described as follows: Plasma stability. The conditions noted are these: 37° C., 2 μM substrate. The class given is in vitro ADME. On the set-up: unit not given here. The gist of the method: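 LC-MS (Q-Exactive, 5 ppm tolerance, 0.1% formic acid water/acetonitrile gradient) quantified compound in quenched aliquots. Aliquots were taken at 0.05, 0.5, 1, 2, 3 and 4 hr and quenched with internal-standard solution, and supernatants were diluted with water after centrifugation.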

A short description of a further series: GI S9 stability. In kind it is in vitro ADME. As for the experimental part: Example G: GI S9 Stability
Duplicate aliquots of test compound or positive control substrate (GS-7340) were added to S9 stock diluted with 100 mM phosphate buffered saline, pH 7.4, to obtain a protein concentration of 1.0 mg/mL. The S9 metabolic reactions were initiated by the addition of the substrates to the S9 reaction mixture to a final concentration of 2 μM. At 0, 10, 20, 30, 60 and 120 min, […] aliquots of the reaction mixture were transferred to plates containing […] of IS/Q solution. After quenching, the plates were centrifuged at 3000 g for 30 minutes, and 150 μL aliquots of each supernatant were diluted with 150 μL water. Aliquots ([…]) of the diluted supernatant were analyzed on a Thermo Q-Exactive mass spectrometer as described below. GI S9 Stability—No phenylmethylsulfonyl fluoride (PMSF): Similar to the procedure described above, test compounds were incubated at 2 μM with 1 mg/mL PMSF-free Intestinal S9 fractions. Samples are removed at 6 time points over the course of a 120 min experiment and the parent compound disappreance and reference compound A formation is determined by mass spectrometry.
Example K: Liquid Chromatography/Mass Spectroscopy Methods for S9 and Plasma Stability
Quantification of test compounds, Reference Compound A (S9 stability assay nucleoside metabolite), and controls was performed by analyte/internal standard peak area ratio (PAR) values measured on a Thermo Q-Exactive mass spectrometer coupled to a Dionex UltiMate 3000 HPLC with a Leap Technologies HTC PAL autosampler. The column used for analysis of test compounds and Reference Compound A was a Waters Acquity BEH C18 ([…] particle size, 2.1′50 mm). The column used for control (GS-7340) was a Thermo Hypersil GOLD ([…] particle size, 2.1′50 mm). Mobile phase A consisted of 0.1% (v/v) formic acid in water. Mobile phase B consisted of 0.1% (v/v) formic acid in acetonitrile. Elution of analytes was achieved by a series of linear gradients of acetonitrile in water containing 0.1°(v/v) formic acid. The mass spectrometer was calibrated on a weekly basis and mass tolerance of 5 ppm was used.

Series [1] is described as follows: CC50 MT4 cytotoxicity (Cell-Titer Glo). The class given is cell-based. The conditions noted are these: human. The essentials: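 CC50 values are the concentrations cutting viability by 50%, fitted by non-linear regression against untreated (100%) and 2 μM puromycin (0%) controls. Cell-Titer Glo luminescence measured after 4-5 days at 37° C exposure of uninfected MT-4 and HEp-2 cells to 3-fold dilutions spanning 15 nM to 100,000 nM.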

The subject of series [2] is Respiratory syncytial virus recombinant with luciferase (RSV-Luc5) in HEp-2 cells. Description: microbe, parasite or virus in culture. The class given is cell-based. The following applies: human respiratory syncytial virus, HEp-2, 72 h, read-out: RSV Hep2 EC50.
Series [3] deals with SARS Coronavirus 2 recombinant with NanoLuc (SARS-CoV2-NLuc) in A549-hACE2 cells. Description: organism not typed. In kind it is cell-based. The conditions noted are these: 48 h; read-out: SARS-CoV2 EC50.
In series [4] the test system is Respiratory syncytial virus recombinant with luciferase (RSV-Luc5) in Normal Human Bronchial Epithelial (NHBE) cells. Description: microbe, parasite or virus in culture. The class given is cell-based. The following applies: 72 h, read-out: RSV NHBE EC50.
For series [5], the system named is Caco-2 cells (clone C2BBe1). Description: CACO-2 permeability. The following applies: for DM Caco2 A to B: apical to basolateral, donor pH 6.5, receiver pH 7.4; for DM Caco2 B to A: basolateral to apical. On the set-up: unit not given here. In kind it is in vitro ADME. The gist of the method: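 A-to-B and B-to-A flux measured by LC-MS/MS from receiver samples taken at 1 and 2 h, with donor sampled at 0 and 2 h and recovery checked. Buffers: pH 6.5 HBSS with 200 μM BNPP on the donor side, pH 7.4 with BSA on the receiver side. Monolayers were 21-day cultures, TEER-verified, in duplicate wells.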
A general note: Passage across Caco-2 layers is used to estimate intestinal permeability.

Series [6] can be described thus: GI S9 stability - no PMSF. The class given is in vitro ADME. The conditions noted are these: pH 7.4; human intestinal S9, PMSF-free; read-out: GIS9-HUMAN-NoPMSF T1/2. The gist of the method:
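Stability was assessed by Q-Exactive LC-MS peak area ratios against internal standard, tracking loss of parent and appearance of nucleoside metabolite Reference Compound A. Incubations used 2 μM compound in 1 mg/mL intestinal S9 without PMSF (PBS, pH 7.4), with six samples taken over 120 min.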

Consider `CC(C)(C)COC(=O)OC[C@H]1O[C@@](C#N)(c2ccc3c(N)ncnn23)[C@H](O)[C@@H]1O` [Compound 3, ((2R,3S,4R,5R)-5-(4-aminopyrrolo[2,1-f][1,2,4]triazin-7-yl)-5-cyano-3,4-dihydroxytetrahydrofuran-2-yl)methyl neopentyl carbonate], for which, in the series “Plasma stability”, the “STA Human Plasma 37” value is reported as 82.745. Moreover, the half-life at 2 µM in the series “GI S9 stability” (human, s9, pH 7.4) stood at 1.35 h; in series [6] it was 0.0133 h. Further, the CC50 – broadly, the concentration that lowers cell viability or growth by half – in series [1] is above 50 µM. For the same compound, the values for the EC50 in series [2], in series [3] and in series [4] were 0.545 µM, 0.796 µM and 1.6 µM, respectively. In series [5], the “DM Caco2 A to B” value is 1.23. Moreover, the “DM Caco2 B to A” value in series [5] stood at 9.8.

For `CCCOC(=O)OC[C@H]1O[C@@](C#N)(c2ccc3c(N)ncnn23)[C@H](O)[C@@H]1O` [Compound 8, ((2R,3S,4R,5R)-5-(4-aminopyrrolo[2,1-f][1,2,4]triazin-7-yl)-5-cyano-3,4-dihydroxytetrahydrofuran-2-yl)methyl propyl carbonate], in “Plasma stability”, the “STA Human Plasma 37” value is recorded as 11.698. Besides, the half-life at 2 µM in the series “GI S9 stability” (pH 7.4, human intestinal S9, read-out: GIS9 Human T1/2) came out at 2.66 h; in series [6], 0.00967 h. Also, in series [1] (uninfected MT-4 cells, 4-5 days, read-out: MT4 CC50), the CC50 is above 50 µM. The EC50 (usually the concentration needed to bring the measured effect to its halfway point) in series [2] turned out to be 0.301 µM; in series [3], 1.01 µM; in series [4] it was 1.84 µM.

Turning to `CC(C)COC(=O)Nc1ncnn2c([C@]3(C#N)O[C@H](COC(=O)OCC(C)C)[C@@H](O)[C@H]3O)ccc12` [Compound 2, isobutyl (7-((2R,3R,4S,5R)-2-cyano-3,4-dihydroxy-5-(((isobutoxycarbonyl)oxy)methyl)tetrahydrofuran-2-yl)pyrrolo[2,1-f][1,2,4]triazin-4-yl)carbamate], the “STA Human Plasma 37” value in the series “Plasma stability” came out at 344.3. The half-life at 2 µM in the series “GI S9 stability” (human, s9, pH 7.4) is 2.61 h. The CC50 in series [1] is above 50 µM. The EC50 in series [2] is 6.61 µM; in series [3] it was above 50 µM; in series [4], 9.6 µM. In addition, in series [5], the “DM Caco2 A to B” value is on record as 1.17. For the same compound, the “DM Caco2 B to A” value in series [5] is on record as 8.69.

Turning to `COC(=O)OC[C@H]1O[C@@](C#N)(c2ccc3c(N)ncnn23)[C@H](O)[C@@H]1O` [Compound 5, ((2R,3S,4R,5R)-5-(4-aminopyrrolo[2,1-f][1,2,4]triazine-7-yl)-5-cyano-3,4-dihydroxytetrahydrofuran-2-yl)methyl methyl carbonate], the “STA Human Plasma 37” value in the series “Plasma stability” worked out at 1388.9. In addition, the half-life at 2 µM in “GI S9 stability” (human, s9, pH 7.4) is at least 13.2 h; in series [6] it was 1.25 h. This compound also gave a CC50 in series [1] above 50 µM. The results for the EC50 in series [2], in series [3] and in series [4] were 2.9 µM, 13.2 µM and 3.55 µM, respectively.

In the case of `CC(C)(C)COC(=O)OC[C@H]1O[C@@](C#N)(c2ccc3c(=N)n(COP(=O)(O)O)cnn23)[C@H](O)[C@@H]1O` [Compound 19, ((2R,3S,4R,5R)-5-cyano-3,4-dihydroxy-5-(4-imino-3-((phosphonooxy)methyl)-3,4-dihydropyrrolo[2,1-f][1,2,4]triazin-7-yl)tetrahydrofuran-2-yl)methyl neopentyl carbonate], the “STA Human Plasma 37” value in the series “Plasma stability” is 1584. Moreover, the half-life at 2 µM in the series “GI S9 stability” (human, s9, pH 7.4) worked out at 0.457 h. The compound further returned a CC50 in series [1] above 50 µM. In addition, the EC50 is 1.24 µM in series [2], 7.7 µM in series [3] and 5.4 µM in series [4].

As for `COC(C)(C)COC(=O)OC[C@H]1O[C@@](C#N)(c2ccc3c(N)ncnn23)[C@H](O)[C@@H]1O` [Compound 54, ((2R,3S,4R,5R)-5-(4-aminopyrrolo[2,1-f][1,2,4]triazin-7-yl)-5-cyano-3,4-dihydroxytetrahydrofuran-2-yl)methyl (2-methoxy-2-methylpropyl) carbonate], in “Plasma stability”, the “STA Human Plasma 37” value is 108. The half-life at 2 µM in the series “GI S9 stability” (human, s9, pH 7.4) was 11.5 h; in series [6], 0.0721 h. Moreover, in series [1], the CC50 was above 50 µM. Moreover, the concentration giving a half-maximal response (EC50) turned out to be 0.587 µM in series [2], 5.69 µM in series [3] and 1.02 µM in series [4]. In addition, the “DM Caco2 A to B” value in series [5] was found to be 0.25. In addition, in series [5], the “DM Caco2 B to A” value is 3.8.

With `N#C[C@@]1(c2ccc3c(N)ncnn23)O[C@H](COC(=O)OC2CC2)[C@@H](O)[C@H]1O` [Compound 9, ((2R,3S,4R,5R)-5-(4-aminopyrrolo[2,1-f][1,2,4]triazin-7-yl)-5-cyano-3,4-dihydroxytetrahydrofuran-2-yl)methyl cyclopropyl carbonate], the “STA Human Plasma 37” value in the series “Plasma stability” stood at 156.68. In the series “GI S9 stability” (human, s9, pH 7.4), the half-life at 2 µM was determined as 5.19 h. Moreover, in series [1], the CC50 was above 50 µM. In addition, the values for the EC50 in series [2], in series [3] and in series [4] were 0.784 µM, 2.28 µM and 1.81 µM, respectively. In addition, the “DM Caco2 A to B” value in series [5] is listed as 0.39. In series [5], the “DM Caco2 B to A” value amounted to 5.17.

Regarding `N#C[C@@]1(c2ccc3c(N)ncnn23)O[C@H](COC(=O)OC2CCCC2)[C@@H](O)[C@H]1O` [Compound 12, ((2R,3S,4R,5R)-5-(4-aminopyrrolo[2,1-f][1,2,4]triazin-7-yl)-5-cyano-3,4-dihydroxytetrahydrofuran-2-yl)methyl cyclopentyl carbonate], in the series “Plasma stability”, the “STA Human Plasma 37” value is given as 35.623. Besides, the half-life at 2 µM in the series “GI S9 stability” (human, s9, pH 7.4) was 0.966 h. Also, in series [1], the CC50 was above 50 µM. Besides, the EC50 was 0.659 µM in series [2], 2.35 µM in series [3] and 1.58 µM in series [4]. The “DM Caco2 A to B” value in series [5] is 1.15. For the same compound, the “DM Caco2 B to A” value in series [5] came to 13.73.

With `N#C[C@@]1(c2ccc3c(N)ncnn23)O[C@H](COC(=O)Oc2ccccc2)[C@@H](O)[C@H]1O` [Compound 7, ((2R,3S,4R,5R)-5-(4-aminopyrrolo[2,1-f][1,2,4]triazin-7-yl)-5-cyano-3,4-dihydroxytetrahydrofuran-2-yl)methyl phenyl carbonate], in “Plasma stability”, the “STA Human Plasma 37” value is recorded as 6.563. In “GI S9 stability” (human, s9, pH 7.4), this compound registered a half-life at 2 µM of 0.9 h. This compound also came in with a CC50 in series [1] of 47.4 µM. For the same compound, the values for the EC50 in series [2], in series [3] and in series [4] were 0.416 µM, 0.915 µM and 1.34 µM, respectively. For the same compound, the “DM Caco2 A to B” value in series [5] is 0.52. Moreover, the “DM Caco2 B to A” value in series [5] is given as 8.98.

`COCCOC(=O)OC[C@H]1O[C@@](C#N)(c2ccc3c(N)ncnn23)[C@H](O)[C@@H]1O` [Compound 10, ((2R,3S,4R,5R)-5-(4-aminopyrrolo[2,1-f][1,2,4]triazine-7-yl)-5-cyano-3,4-dihydroxytetrahydrofuran-2-yl)methyl (2-methoxyethyl) carbonate]: the “STA Human Plasma 37” value in the series “Plasma stability” was determined as 43.569. The compound also showed a half-life at 2 µM in “GI S9 stability” (human, s9, pH 7.4) of at least 13.2 h. Also, the CC50 in series [1] was above 50 µM. The EC50 came to 3.97 µM in series [2], 14.1 µM in series [3] and 2.99 µM in series [4]. The “DM Caco2 A to B” value in series [5] was 0.08. In addition, the “DM Caco2 B to A” value in series [5] is given as 1.39.
